Reference: patent publication US20190135857A1, “TR[…] HUMAN IMMUNODEFICIENCY VIRUS REPLICATION” (priority 2016, published 2019)

Tested on: recombinant NL4-3 virus (nef section replaced with Renilla luciferase gene, Gag P373S)
Experiment: HIV Cell Culture Assay
Type: cell-based
Settings: NL43
Method: MT-2 cells and 293T cells were obtained from the NIH AIDS Research and Reference Reagent Program. MT-2 cells were propagated in RPMI 1640 media supplemented with 10% heat inactivated fetal bovine serum, […]. The 293T cells were propagated in DMEM media supplemented with 10% heat inactivated fetal bovine serum (FBS), 100 units/ml penicillin G and 100 μg/ml streptomycin. The proviral DNA clone of NL4-3 was obtained from the NIH AIDS Research and Reference Reagent Program. A recombinant NL4-3 virus, in which a section of the nef gene from NL4-3 was replaced with the Renilla luciferase gene, was used as a reference virus. In addition, residue Gag P373 was converted to P373S. Briefly, the recombinant virus was prepared by transfection of the altered proviral clone of NL4-3. Transfections were performed in 293T cells using LipofectAMINE PLUS from Invitrogen (Carlsbad, Calif.), according to manufacturer's instruction. The virus was titered in MT-2 cells using luciferase enzyme activity as a marker. Luciferase was quantitated using the Dual Luciferase kit from Promega (Madison, Wis.), with modifications to the manufacturer's protocol. The diluted Passive Lysis solution was pre-mixed with the re-suspended Luciferase Assay Reagent and the re-suspended Stop & Glo Substrate (2:1:1 ratio). Fifty (50) μL of the mixture was added to each aspirated well on assay plates and luciferase activity was measured immediately on a Wallac TriLux (Perkin-Elmer). Antiviral activities of inhibitors toward the recombinant virus were quantified by measuring luciferase activity in cells infected for 4-5 days with NLRluc recombinants in the presence serial dilutions of the inhibitor. Note that some of the data is provided in abbreviated exponential form such that, for example, 2.53E−3, is equivalent to 2.53×10^−3.

SMILES	EC50
CC(C)[C@@H]1CC[C@]2(NCCN3C[C@@H]4C[C@H]3CS4(=O)=O)CC[C@]3(C)[C@H](CC[C@@H]4[C@@]5(C)CC[C@@H](c6ccc(C(=O)O)cc6)C(C)(C)[C@@H]5CC[C@]43C)[C@@H]12 (single isomer, unassigned) [Example B12]	0.605 nM
CC(C)[C@@H]1CC[C@]2(C(=O)NCCCN(C)C)CC[C@]3(C)[C@H](CC[C@@H]4[C@@]5(C)CC[C@@H](c6ccc(C(=O)O)cc6)C(C)(C)[C@@H]5CC[C@]43C)[C@@H]12 [Example B3, 4-((1S,3aS,5aR,5bR,7aS,9R,11aS,11bR,13aR,13bR)-3a-((3-(dimethylamino)propyl)carbamoyl)-1-isopropyl-5a,5b,8,8,11a-pentamethylicosahydro-1H-cyclopenta[a]chrysen-9-yl)benzoic acid]	2.33 nM
CC(C)[C@@H]1CC[C@]2(N)CC[C@]3(C)[C@H](CC[C@@H]4[C@@]5(C)CC[C@@H](c6ccc(C(=O)O)cc6)C(C)(C)[C@@H]5CC[C@]43C)[C@@H]12 [Example B4, 4-((1S,3aS,5aR,5bR,7aS,9R,11aS,11bR,13aR,13bR)-3a-amino-1-isopropyl-5a,5b,8,8,11a-pentamethylicosahydro-1H-cyclopenta[a]chrysen-9-yl)benzoic acid]	4.53 nM
CC(C)[C@@H]1CC[C@]2(NC(=O)OCCN(C)C)CC[C@]3(C)[C@H](CC[C@@H]4[C@@]5(C)CC[C@@H](c6ccc(C(=O)O)cc6)C(C)(C)[C@@H]5CC[C@]43C)[C@@H]12 (single isomer, unassigned) [Example B7]	6.45 nM
CC(C)[C@@H]1CC[C@]2(NC(=O)OCCCN(C)C)CC[C@]3(C)[C@H](CC[C@@H]4[C@@]5(C)CC[C@@H](c6ccc(C(=O)O)cc6)C(C)(C)[C@@H]5CC[C@]43C)[C@@H]12 (single isomer, unassigned) [Example B8]	4.49 nM
CC(C)[C@@H]1CC[C@]2(C(=O)O)CC[C@]3(C)[C@H](CC[C@@H]4[C@@]5(C)CC[C@@H](c6ccc(C(=O)O)cc6)C(C)(C)[C@@H]5CC[C@]43C)[C@@H]12 [Example B1, (1S,3aS,5aR,5bR,7aS,9R,11aS,11bR,13aR,13bR)-9-(4-carboxyphenyl)-1-isopropyl-5a,5b,8,8,8,11a-pentamethylicosahydro-1H-cyclopenta[a]chrysene-3a-carboxylic acid]	10 nM
CC(C)[C@@H]1CC[C@]2(NC(=O)CCCN(C)C)CC[C@]3(C)[C@H](CC[C@@H]4[C@@]5(C)CC[C@@H](c6ccc(C(=O)O)cc6)C(C)(C)[C@@H]5CC[C@]43C)[C@@H]12 (single isomer, unassigned) [Example B11]	5.94 nM
CC(C)[C@@H]1CC[C@]2(NC(=O)NCCN(C)C)CC[C@]3(C)[C@H](CC[C@@H]4[C@@]5(C)CC[C@@H](c6ccc(C(=O)O)cc6)C(C)(C)[C@@H]5CC[C@]43C)[C@@H]12 (single isomer, unassigned) [Example B5]	5.16 nM
CC(C)[C@@H]1CC[C@]2(NC(=O)CCN(C)C)CC[C@]3(C)[C@H](CC[C@@H]4[C@@]5(C)CC[C@@H](c6ccc(C(=O)O)cc6)C(C)(C)[C@@H]5CC[C@]43C)[C@@H]12 (single isomer, unassigned) [Example B10]	3.81 nM
CC(C)[C@@H]1CC[C@]2(NC(=O)CN(C)C)CC[C@]3(C)[C@H](CC[C@@H]4[C@@]5(C)CC[C@@H](c6ccc(C(=O)O)cc6)C(C)(C)[C@@H]5CC[C@]43C)[C@@H]12 (single isomer, unassigned) [Example B9]	10 nM
CC(C)[C@@H]1CC[C@]2(NC(=O)NCCCN(C)C)CC[C@]3(C)[C@H](CC[C@@H]4[C@@]5(C)CC[C@@H](c6ccc(C(=O)O)cc6)C(C)(C)[C@@H]5CC[C@]43C)[C@@H]12 (single isomer, unassigned) [Example B6]	5.13 nM
CC(C)[C@@H]1CC[C@]2(NCCN3CCC(S(C)(=O)=O)CC3)CC[C@]3(C)[C@H](CC[C@@H]4[C@@]5(C)CC[C@@H](c6ccc(C(=O)O)cc6)C(C)(C)[C@@H]5CC[C@]43C)[C@@H]12 [Example B13, 4-((1S,3aS,5aR,5bR,7aS,9R,11aS,11bR,13aR,13bR)-1-isopropyl-5a,5b,8,8,11a-pentamethyl-3a-((2-(4-(methylsulfonyl)piperidin-1-yl)ethyl)amino)icosahydro-1H-cyclopenta[a]chrysen-9-yl)benzoic acid]	1.58 nM
CC(C)[C@@H]1CC[C@]2(C(=O)NCCN(C)C)CC[C@]3(C)[C@H](CC[C@@H]4[C@@]5(C)CC[C@@H](c6ccc(C(=O)O)cc6)C(C)(C)[C@@H]5CC[C@]43C)[C@@H]12 [Example B2, 4-((1S,3aS,5aR,5bR,7aS,9R,11aS,11bR,13aR,13bR)-3a-((2-(dimethylamino)ethyl)carbamoyl)-1-isopropyl-5a,5b,8,8,11a-pentamethylicosahydro-1H-cyclopenta[a]chrysen-9-yl)benzoic acid]	2.53 nM
